ChEMBL document CHEMBL1201862, “PubChem BioAssay data set” (2004)
Active and inactive are the calls of the source.

Key:
[1] = Luminescence Cell-Based Dose Confirmation HTS to Identify Inhibitors of Platelet Dense Granule Release. [Related pubchem assays: 1663 (Primary HTS), 1678 (Summary of Project)]; type: functional
[2] = target: Luciferin 4-monooxygenase (Photinus pyralis, UniProt P08659); experiment: firefly luciferase enzyme inhibitors, dose response, biochemical, luminescence (AID 1891)
[3] = blockers of SFLLRN-triggered platelet ATP secretion – cell-based, human platelets, luminescence, dry powder, dose response (AID 493100); type: functional
[4] = Luminescence Cell-Based Dose Response Follow up to Identify Inhibitors of Platelet Dense Granule Release. [Related pubchem assays (depositor defined):AID1663, AID1678, AID2398]; type: functional
[5] = inhibitors of SFLLRN-triggered platelet P-selectin exposure, dose response, cell-based, fluorescence, flow cytometry, human platelets (AID 2511); type: functional
Candida albicans [6] = experiment: growth inhibition of resistant C. albicans, dose response, CaCi-8, fluconazole, Alamar Blue, dry powder (AID 488807); type: functional, organism-based
Escherichia coli [7] = experiment: microbe, parasite or virus in culture
Escherichia coli [8] = experiment: microbe, parasite or virus in culture; remark: listed apart in the source
[9] = target: 5-hydroxytryptamine receptor 5A (Homo sapiens, UniProt P47898); experiment: Counterscreen for agonists of OPRM1-OPRD1 heterodimerization: luminescence-based cell-based high throughput dose response assay to identify agonists of 5-hydroxytryptamine (serotonin) 5A receptor (HTR5A). [Related pubchem assays (depositor defined):AID504326, AID504355, AID504692, AID504904, AID504905]; type: functional
Sequence of 5-hydroxytryptamine receptor 5A (P47898 whole entry): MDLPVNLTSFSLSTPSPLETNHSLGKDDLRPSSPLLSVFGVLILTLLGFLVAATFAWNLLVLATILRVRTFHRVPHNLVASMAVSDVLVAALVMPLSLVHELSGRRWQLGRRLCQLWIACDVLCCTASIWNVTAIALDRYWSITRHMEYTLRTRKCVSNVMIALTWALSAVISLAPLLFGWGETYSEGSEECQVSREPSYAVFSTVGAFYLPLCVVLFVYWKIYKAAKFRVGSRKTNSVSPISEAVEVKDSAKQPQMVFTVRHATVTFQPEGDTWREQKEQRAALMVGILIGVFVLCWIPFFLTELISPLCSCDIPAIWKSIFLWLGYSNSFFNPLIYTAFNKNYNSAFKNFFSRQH

Mu-type opioid receptor = Mu-type opioid receptor (Homo sapiens, UniProt P35372); experiment: (§1) Counterscreen for agonists of heterodimerization of the mu 1 (OPRM1) and delta 1 (OPRD1) opioid receptors: Luminescence-based cell-based high throughput dose response assay to identify agonists of OPRM1 homodimerization.; type: functional
Sequence of Mu-type opioid receptor (P35372 whole entry): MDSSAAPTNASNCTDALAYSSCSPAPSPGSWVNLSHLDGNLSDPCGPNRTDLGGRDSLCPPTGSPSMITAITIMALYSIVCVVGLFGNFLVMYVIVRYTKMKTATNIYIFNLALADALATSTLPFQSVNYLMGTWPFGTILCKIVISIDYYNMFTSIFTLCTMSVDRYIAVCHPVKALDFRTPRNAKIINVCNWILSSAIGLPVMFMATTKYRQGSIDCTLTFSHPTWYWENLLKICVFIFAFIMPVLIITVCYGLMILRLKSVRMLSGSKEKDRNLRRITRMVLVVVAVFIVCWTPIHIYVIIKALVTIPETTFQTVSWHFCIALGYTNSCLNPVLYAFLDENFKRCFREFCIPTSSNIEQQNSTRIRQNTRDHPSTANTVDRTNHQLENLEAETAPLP

[10] = target: Delta-type opioid receptor (Homo sapiens, UniProt P41143); experiment: as §1, with “of OPRD1” for “of OPRM1”, “homodimerization. [Related pubchem assays (depositor defined):AID504326, AID504355, AID504692, AID504904, AID504905]” for “homodimerization.”; type: functional
Sequence of Delta-type opioid receptor (P41143 whole entry): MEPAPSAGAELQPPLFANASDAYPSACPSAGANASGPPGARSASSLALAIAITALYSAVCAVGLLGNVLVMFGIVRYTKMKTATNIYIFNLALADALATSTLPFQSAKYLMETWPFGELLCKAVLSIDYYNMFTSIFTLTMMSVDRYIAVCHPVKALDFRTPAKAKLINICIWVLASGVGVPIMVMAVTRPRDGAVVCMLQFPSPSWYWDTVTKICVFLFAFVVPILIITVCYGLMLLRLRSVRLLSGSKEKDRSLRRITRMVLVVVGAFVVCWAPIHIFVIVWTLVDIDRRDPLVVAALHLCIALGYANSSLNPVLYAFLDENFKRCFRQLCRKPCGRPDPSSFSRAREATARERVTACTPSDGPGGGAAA

Candida albicans [11] = experiment: fluconazole resistance reversal in C. albicans, dose response, CaCi-2 strain, Alamar Blue, dry powder, set 4 (AID 488943); type: functional, organism-based
Candida albicans [12] = experiment: growth inhibition of resistant C. albicans, dose response, CaCi-8 strain, fluconazole, dry powder, set 4 (AID 488950); type: functional, organism-based
Candida albicans [13] = experiment: C. albicans growth inhibition with fluconazole, dose response, antifungal resistance reversal project, CaCi-2 strain, Alamar Blue, dry powder, set 2 (AID 488930); type: functional, organism-based
Candida albicans [14] = experiment: Candida albicans growth inhibition, compound alone, dose response, counter-screen for antifungal drug resistance project, CaCi-2 strain, Alamar Blue, dry powder, set 2 (AID 488893); type: functional, organism-based
Candida albicans [15] = experiment: growth inhibition of azole-resistant C. albicans, dose response, CaCi-8 strain, Alamar Blue, dry powder, set 2 (AID 488909); type: functional, organism-based
[16] = target: Glucose-6-phosphate 1-dehydrogenase (Homo sapiens, UniProt P11413); experiment: human G6PD enzyme inhibitors, dose response, selectivity assay for P. falciparum G6PD inhibitor project, biochemical, fluorescence (AID 504792); type: functional
Sequence of Glucose-6-phosphate 1-dehydrogenase (P11413 whole entry): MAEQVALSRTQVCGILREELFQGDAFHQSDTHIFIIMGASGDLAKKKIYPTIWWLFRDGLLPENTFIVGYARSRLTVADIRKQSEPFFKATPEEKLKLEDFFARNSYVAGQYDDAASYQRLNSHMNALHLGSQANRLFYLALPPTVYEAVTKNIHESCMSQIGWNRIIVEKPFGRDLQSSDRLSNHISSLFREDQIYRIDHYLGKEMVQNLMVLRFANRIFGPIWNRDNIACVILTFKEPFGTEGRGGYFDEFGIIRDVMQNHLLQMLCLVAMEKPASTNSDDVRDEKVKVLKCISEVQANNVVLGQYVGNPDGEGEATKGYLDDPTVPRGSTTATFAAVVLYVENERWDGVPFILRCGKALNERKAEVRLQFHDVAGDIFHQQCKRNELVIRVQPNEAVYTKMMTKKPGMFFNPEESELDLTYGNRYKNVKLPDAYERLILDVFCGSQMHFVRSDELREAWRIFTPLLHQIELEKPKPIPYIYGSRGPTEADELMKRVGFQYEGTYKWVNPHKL

[17] = HeLa 4N DNA content increase, dose response, cell-based, IC50 (AID 1117351); type: functional
A-375 [18] = experiment: MITF: Counter assay: A375 proliferation Measured in Cell-Based System Using Plate Reader - 2084-03_Inhibitor_Dose_DryPowder_Activity. [Related pubchem assays (depositor defined):AID488944]; type: functional; settings: Homo sapiens
[19] = HeLa 2N DNA content increase, dose response, cell-based, IC50 (AID 1117349); type: functional
A-375 [20] = experiment: A375 melanoma cell viability reduction, dose response, counter-screen for MITF modulator project, cherry-pick samples, set 2 (AID 540335); type: functional, cell-based; settings: Homo sapiens
[21] = inhibitors of PGC1a acetylation in cells, dose response, cell-based, cherry-picked samples (AID 720514); type: functional;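 further: potency may reflect raised or lowered acetylation signal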

Sequence of Luciferin 4-monooxygenase (P08659 whole entry): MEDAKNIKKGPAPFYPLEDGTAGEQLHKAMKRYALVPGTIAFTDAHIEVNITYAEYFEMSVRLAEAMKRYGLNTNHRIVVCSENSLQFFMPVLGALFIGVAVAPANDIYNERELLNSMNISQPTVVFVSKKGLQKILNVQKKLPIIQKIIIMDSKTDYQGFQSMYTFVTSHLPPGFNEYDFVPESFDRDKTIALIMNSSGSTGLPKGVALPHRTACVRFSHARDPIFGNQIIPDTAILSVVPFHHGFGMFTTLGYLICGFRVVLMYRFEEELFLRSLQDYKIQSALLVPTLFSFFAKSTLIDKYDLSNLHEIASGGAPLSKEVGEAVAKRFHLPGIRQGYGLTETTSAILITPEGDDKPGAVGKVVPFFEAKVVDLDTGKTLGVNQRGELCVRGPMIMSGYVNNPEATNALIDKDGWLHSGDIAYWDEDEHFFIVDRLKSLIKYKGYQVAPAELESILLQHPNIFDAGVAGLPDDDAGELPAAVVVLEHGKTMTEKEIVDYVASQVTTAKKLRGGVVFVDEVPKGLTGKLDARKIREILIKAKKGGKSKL

With Cc1ccc(-n2c(N)c(C#N)c(-c3ccc(Cl)cc3)c(C#N)c2=O)cc1 the EC50 [1] was 4.94 µM (active), the EC50 [2] was > 112 µM (not active) and the AC50 [3] was 14.3 µM (active). For the same compound, the EC50 [4] was 0.623 µM (active) and the EC50 [5] was < 3 µM (active).

For COC(=O)Cn1nc(-c2ccccc2)c2cc(Cl)ccc21, the AC50 (Candida albicans [6]) was 9.53 µM (active).

For O=S(=O)(c1ccccc1)c1cnc(-c2cccnc2)nc1-c1ccc(Cl)cc1Cl, the AC50 (Escherichia coli [7]) was 150 µM (active) and the AC50 (Escherichia coli [8]) was 224 µM (active).

With Cc1ccc2cc(C(c3nnnn3Cc3ccccc3)N3CCc4ccccc43)c(O)nc2c1 (configuration not stated) the EC50 [9] was > 92.5 µM (inactive), the EC50 (Mu-type opioid receptor) was > 92.5 µM (inactive) and the EC50 [10] was > 92.5 µM (inactive).

In the case of O=C(c1ccc(F)cc1)N1CCN(c2ccnc3cc(Cl)ccc23)CC1, the AC50 (Candida albicans [11]) is reported as 1.33 µM (active), the AC50 (Candida albicans [12]) is reported as 1.19 µM (active) and the AC50 (Candida albicans [13]) is reported as 0.57 µM (active). The AC50 (Candida albicans [14]) was > 260 µM (inactive) and the AC50 (Candida albicans [15]) was 3.2 µM (active).

For CCCCC1C(=O)N(c2ccccc2)N(c2ccc(O)cc2)C1=O (configuration not stated) [OXYPHENBUTAZONE ANHYDROUS], the IC50 [16] was > 80 µM (inactive), the IC50 [17] was > 10 µM (inactive) and the AC50 (A-375 [18]) was > 35 µM (active). For the same compound, the IC50 [19] was > 10 µM (inactive), the AC50 (A-375 [20]) was > 35 µM (active) and the AC50 [21] was 9.85 µM (active).
